This note sets out measurements from patent publication US11453700B2, “Peptide having activities of skin whitening and uses thereof” (CAREGEN CO., LTD., priority 2019, dated 2022).

One assay deals with B16F10 cells. Kind of assay: Inhibitory effect on melanin production in α-MSH-stimulated B16F10 cells. The format is cell-based, mouse. The conditions noted are these: 200 ng/mL α-MSH, peptide 10, 50, 100 or 200 μM, 72 hours, FIG. 1. On the procedure: A mouse melanoma cell B16F10 was seeded in a 6-well plate at a density of 5×10^4 cells/well, followed by incubation for 16 hours. Thereafter, the culture medium was replaced by a medium supplemented with 2% (v/v) serum, and then 200 ng/mL of α-melanocyte-stimulating hormones (α-MSH) was added thereto to stimulate melanin production, together with each peptide of an amino acid sequence of SEQ ID NO: 1, at a concentration of 10 μM, 50 μM, 100 μM, or 200 μM, respectively, followed by incubation for 72 hours. Thereafter, the incubated cells were dissolved in 1 N NaOH, and absorbance at 450 nm was measured. In addition, an untreated group (Con) was used as a control, and only an α-MSH-treated group as a negative control and 200 μM or 500 μM of arbutin-, which is a known skin-whitening agent, and α-MSH-treated group as a positive control were used.
From absorbance at 450 nm, the content of melanin (%) produced by B16F10 cells was determined.

Assay [1] deals with T1, tyrosinase (Mus musculus, UniProt P11344).
T1 construct: the cells were lysed by adding 0.1 M sodium phosphate buffer (pH 6.8, lysis buffer) containing 1% (v/v) triton X-100; endogenous in cells; host or cells: B16F10 mouse melanoma cells, stimulated with alpha-MSH
T1 sequence (P11344 19-533): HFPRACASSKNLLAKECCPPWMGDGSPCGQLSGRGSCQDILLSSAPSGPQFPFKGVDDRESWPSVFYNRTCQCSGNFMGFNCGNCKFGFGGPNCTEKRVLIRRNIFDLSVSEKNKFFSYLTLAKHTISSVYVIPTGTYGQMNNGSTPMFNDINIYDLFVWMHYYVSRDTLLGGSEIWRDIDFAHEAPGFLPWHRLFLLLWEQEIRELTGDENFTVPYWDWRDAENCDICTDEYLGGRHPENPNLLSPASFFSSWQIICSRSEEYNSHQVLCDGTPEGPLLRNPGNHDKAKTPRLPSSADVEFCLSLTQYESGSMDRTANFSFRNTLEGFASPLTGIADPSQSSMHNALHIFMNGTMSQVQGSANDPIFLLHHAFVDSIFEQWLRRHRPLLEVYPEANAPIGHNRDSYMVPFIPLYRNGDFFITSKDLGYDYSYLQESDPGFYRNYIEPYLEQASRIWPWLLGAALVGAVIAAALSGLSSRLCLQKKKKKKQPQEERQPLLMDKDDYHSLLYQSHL
Kind of assay: Inhibitory effect on tyrosinase activity in α-MSH-stimulated B16F10 cells (L-DOPA, cell lysate). The format is cell-based. The conditions noted are these: 200 ng/mL α-MSH, peptide 1-160 μM, 72 hours, FIG. 2. As to the method:
In detail, a mouse melanoma cell B16F10 was seeded in a 6-well plate at a density of 5×10^4 cells/well, followed by incubation for 16 hours. Thereafter, the culture medium was replaced by a medium supplemented with 2% (v/v) serum, and then 200 ng/mL of α-MSH was added thereto. Together therewith, the peptide composed of the amino acid sequence of SEQ ID NO: 1 was added at a concentration of 1 μM, 10 μM, 20 μM, 40 μM, 60 μM, 80 μM or 160 μM, respectively, followed by incubation for 72 hours. The 6-well plate was placed on ice, and then washed with cold PBS twice. Thereafter, the cells were lysed by adding 0.1 M sodium phosphate buffer (pH 6.8, lysis buffer) containing 1% (v/v) triton X-100. Thereafter, the cells in the well plate were scraped using a scraper, and collected in a 1.5 mL tube. The collected cells were vortexed, and centrifuged at 15,000 rpm for 10 minutes to obtain a supernatant. Thereafter, proteins in the supernatant were quantified to adjust the protein content at a predetermined amount. A buffer was added thereto, and 90 μL total of the sample was dispensed in a 96-well plate.
Thereafter, 20 μL of 10 mM L-DOPA was added to each sample, and incubated at 37° C. for 1 hour. Then, absorbance at 475 nm was measured. […] From absorbance at […], the tyrosinase activity (fold) was determined.

The subject of assay [2] is Rab27a. The assay is described as follows: Expression of melanin production-associated genes (RT-PCR), Rab27a. Format: cell-based, mouse. As to conditions: B16F10 cells, 200 ng/mL α-MSH, peptide 1-160 μM, 72 hours, FIG. 3. As to the method:
(§1) In detail, a mouse melanoma cell B16F10 was seeded in a 6-well plate at a density of 5×10^4 cells/well, followed by incubation for 16 hours. Thereafter, the culture medium was replaced by a medium supplemented with 2% (v/v) serum, and then 200 ng/mL of α-MSH was added thereto. Together therewith, the peptide composed of the amino acid sequence of SEQ ID NO: 1 was added at a concentration of 1 μM, 10 μM, 20 μM, 40 μM, 60 μM, 80 μM or 160 μM, respectively, followed by incubation for 72 hours. mRNAs were extracted from the cultured cells, and the extracted mRNAs were reverse transcribed using a cDNA synthesis kit & PCR pre-mix (Intron, Korea), thereby synthesizing cDNA, respectively. Thereafter, a polymerase chain reaction (PCR) was carried out using each cDNA and Rab27a, Melanophilin (Mlph), myosin VA, MITF, tyrosinase, or TRP1 primer pairs. Moreover, a control, a negative control, and a positive control were used in the same manner as in Example 2.(1), and nucleotide sequences of the primers used herein are as in Table 3 below.

The subject of a further assay is Melanophilin (Mlph). The assay is described as follows: Expression of melanin production-associated genes (RT-PCR), Mlph. Format: cell-based, mouse. The conditions noted are these: B16F10 cells, 200 ng/mL α-MSH, peptide 1-160 μM, 72 hours, FIG. 3. On the procedure: as §1
A further assay has as its system myosin VA. Kind of assay: Expression of melanin production-associated genes (RT-PCR), myosin VA. Format: cell-based, mouse. As to conditions: B16F10 cells, 200 ng/mL α-MSH, peptide 1-160 μM, 72 hours, FIG. 3. On the procedure:
as §1

Assay [3] has as its system MITF. The assay is described as follows: Expression of melanin production-associated genes (RT-PCR), MITF. The format is cell-based, mouse. The conditions noted are these: B16F10 cells, 200 ng/mL α-MSH, peptide 1-160 μM, 72 hours, FIG. 3. On the procedure:
as §1

In assay [4] the test system is tyrosinase. Kind of assay: Expression of melanin production-associated genes (RT-PCR), tyrosinase. Format: cell-based, mouse. As to conditions: B16F10 cells, 200 ng/mL α-MSH, peptide 1-160 μM, 72 hours, FIG. 3. On the procedure:
as §1

A further assay deals with TRP1. Kind of assay: Expression of melanin production-associated genes (RT-PCR), TRP1. The format is cell-based, mouse. As to conditions: B16F10 cells, 200 ng/mL α-MSH, peptide 1-160 μM, 72 hours, FIG. 3. As to the method:
as §1

The subject of the next assay is Mlph. Kind of assay: Expression of melanin production-associated proteins (immunoblotting), Mlph. Format: cell-based, mouse. As to conditions: B16F10 cells, 200 ng/mL α-MSH, peptide 1-160 μM, 72 hours, FIG. 4. On the procedure:
(§2) In detail, a mouse melanoma cell B16F10 was seeded in a 6-well plate at a density of 5×10^4 cells/well, followed by incubation for 16 hours. Thereafter, the culture medium was replaced by a medium supplemented with 2% (v/v) serum, and then 200 ng/mL of α-MSH was added thereto. Together therewith, the peptide composed of the amino acid sequence of SEQ ID NO: 1 was added at a concentration of 1 μM, 10 μM, 20 μM, 40 μM, 60 μM, 80 μM or 160 μM, respectively, followed by incubation for 72 hours. Thereafter, the cultured cells were lysed, and then subjected to immunoblotting using antibodies (all available from santacruz biotechnology, USA) against Mlph, Rab27a, tyrosinase (TYR), or MITF. In addition, a control, a negative control, and a positive control were used in the same manner as in Example 2.(1).
In general terms: In western blotting, separated proteins are transferred to a membrane and probed.

Assay [5] relates to Rab27a. The assay is described as follows: Expression of melanin production-associated proteins (immunoblotting), Rab27a. The format is cell-based, mouse. The conditions noted are these: B16F10 cells, 200 ng/mL α-MSH, peptide 1-160 μM, 72 hours, FIG. 4. On the procedure: as §2
In another assay the test system is tyrosinase (TYR). Kind of assay: Expression of melanin production-associated proteins (immunoblotting), TYR. As to conditions: B16F10 cells, 200 ng/mL α-MSH, peptide 1-160 μM, 72 hours, FIG. 4. Format: cell-based, mouse. On the procedure:
as §2

In assay [6] the test system is MITF. Kind of assay: Expression of melanin production-associated proteins (immunoblotting), MITF. Format: cell-based, mouse. The conditions noted are these: B16F10 cells, 200 ng/mL α-MSH, peptide 1-160 μM, 72 hours, FIG. 4. On the procedure: as §2

Take PNRYP [SEQ ID NO: 1]: the melanin production entry with B16F10 cells is recorded as “reduced in a concentration-dependent manner”. The tyrosinase activity entry with tyrosinase [1] is given as “inhibited”. Also, the “expression of Rab27a gene” value with Rab27a [2] is listed as “inhibited”. In addition, the “expression of Mlph gene” value in the assay on Melanophilin (Mlph) is reported as “inhibited”. In addition, the “expression of myosin VA gene” value in the assay with myosin VA is listed as “inhibited”. In addition, the “expression of MITF gene” value with MITF [3] is recorded as “inhibited”. The “expression of tyrosinase gene” value with tyrosinase [4] is “inhibited”. In the assay with TRP1, the “expression of TRP1 gene” value is “inhibited”. Besides, the “expression of Mlph protein” value in the assay on Mlph is given as “inhibited”. Also, in the assay with Rab27a [5], the “expression of Rab27a protein” value is recorded as “inhibited”. Further, in the assay with tyrosinase (TYR), the “expression of TYR protein” value was “inhibited”. In the assay on MITF [6], the “expression of MITF protein” value is listed as “inhibited”.
